Where two headings read alike, the source gives them in different places.
Key:
[1] = target: human IL-17A / human IL-17RA (Homo sapiens (Human), UniProt Q16552); experiment: Human IL-17A biochemical assay (HTRF, blocking of IL-17A binding to IL-17RA); conditions: 0.4 nM IL-17A, 0.3 nM IL-17RA, max compound concentration 10 uM
Method: Compounds disclosed herein were tested for blocking of human IL-17A (Cat: C774, novoprotein) protein with its receptor human IL-17RA (Cat: C153, novoprotein) in an assay based on Homogeneous Time Resolved Fluorescence. 0.4 nM recombinant human IL-17A protein was pre-incubated with a serial dilution of compounds disclosed herein (maximum concentration is 10 uM, 2.7-fold serially diluted, 10 points) at room temperature for 3 hours in an assay buffer containing 20 mM HEPES, pH 7.5, 50 mM NaCl, 0.1% BSA, 0.2 mM DTT, 0.005% Tween 20. Then 0.3 nM recombinant human IL-17RA was added to plate and further incubated at room temperature for 1 hour. After that Mab Anti-6His Tb cryptate Gold (Cat: 61HI2TLB, Cisbio Bioassays) and MAb Anti Human IgG-XL665 (Cat: 61HFCXLB, Cisbio Bioassays) were added to plate and further incubated at room temperature for 1 hour. The HTRF signals (ex337 nm, em620 nm/665 nm) were read on BMG PHERAstar FSX instrument. The inhibition percentage of human IL-17A interaction with its receptor human IL-17RA in presence of increasing concentrations of compounds was calculated based on the ratio of […]. The IC50 for each compound was derived from fitting the data to the four-parameter logistic equation by Dotmatics.

[2] = tested on: IL-17-induced GROα secretion from HT-29 cells; experiment: GROα release assay in human colorectal adenocarcinoma epithelial cell (HT-29, ELISA); format: cell-based; conditions: 10 ng/mL IL-17A, highest concentration 10 μM, read-out: Cellular assay HT29 cell/CXCL1 IC50
Method: The purpose of the assay is to test the ability of a compound to neutralize IL17A proteins. IL17 can stimulate human epithelial cells to secrete GROα. The ability of one compound of the invention to neutralize IL-17-induced GROα secretion from the human colorectal adenocarcinoma epithelia cell line HT-29 is tested in this assay.
HT-29 cells (human colorectal adenocarcinoma epithelia cell, ATCC) were stimulated with IL-17A (Novoprotein, #C774) in final concentration of 10 ng/mL. The resultant GROα response was measured using an ELISA kit from Invitrogen (#88-52122). HT-29 cells were cultured in complete medium (McCoy's 5A medium+10% FBS) and maintained in a tissue culture flask using standard techniques. On day 1, detached the cell by using TrypLE (Gibco, #12605036) and used the complete medium to neutralize. The cells were centrifuged at 11,00 rmp for 4 minutes. Re-suspended the cell pellet in complete medium and seeded 50,000 HT-29 cells into the 96-well assay plate (Corning, 3599) at 135 μL complete medium per well. The cells were incubated for overnight, at 37° C./5% CO2 to adherent the plate. On day 2, prepared a 4-fold serial dilution of the tested compound in DMSO. The highest concentration of the compound was 10 μM. Transferred 2 μL of the serial diluted compound from the serial dilution plate into the reagent plate which was contained 198 μL complete medium with 100 ng/mL IL-17A per well. The compounds were incubated with the IL-17A for 15 minutes. 15 μL mixtures from reagent plate were transferred into the cell assay plate. Incubated the plate at 37° C./5% CO2 for 48 hours. After the incubation, on day 4, GROα level were measured with GROα ELISA as the manufacturer's instructions. 50 μL supernatant was collected form the assay plate to ELISA plate. ELISA plate was read at 450 nm on a microplate reader and compared to a standard calibration curve.
Data were processed using GraphPad Prism. GROα concentration was calculated from the standard curve. IC50 was determined using the equation log concentration (inhibitor) against response and fitted to four parameters.

human IL-17A / human IL-17RA, sequence (Q16552 24-155): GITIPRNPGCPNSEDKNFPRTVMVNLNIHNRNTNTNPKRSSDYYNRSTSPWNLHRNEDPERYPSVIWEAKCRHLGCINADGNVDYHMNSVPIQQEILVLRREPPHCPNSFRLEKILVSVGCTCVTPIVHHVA

SMILES | IC50 [1] [nM] | IC50 ([2]; Homo sapiens, HT-29, 48 h) [nM] | IC50 ([2]; 48 hours) [nM]
CNC(=O)C1(N2CC(C)NC2=O)Cc2ccc(NC(=O)[C@@H](NC(=O)c3ccnn3C)C3CCCCC3)cc2C1 (stereo partly drawn) [Example 1, N-((1S)-1-cyclohexyl-2-((2-(4-methyl-2-oxoimidazolidin-1-yl)-2-(methylcarbamoyl)-2,3-dihydro-1H-inden-5-yl)amino)-2-oxoethyl)-1-methyl-1H-pyrazole-5-carboxamide] | 379 | 898 | 
CNC(=O)C1(N2C[C@@H](CCc3ccccc3)NC2=O)Cc2ccc(NC(=O)[C@@H](NC(=O)c3ccnn3C)C3CCCCC3)cc2C1 (stereo partly drawn) [Example 96, N-((1S)-1-cyclohexyl-2-((2-(methylcarbamoyl)-2-((R)-2-oxo-4-phenethylimidazolidin-1-yl)-2,3-dihydro-1H-inden-5-yl)amino)-2-oxoethyl)-1-methyl-1H-pyrazole-5-carboxamide] | 2320 |  | 
CNC(=O)C1(N2C[C@@H](C(C)C)NC2=O)Cc2ccc(NC(=O)[C@@H](NC(=O)c3ccn(CCO)n3)C3CCCCC3)cc2C1 (stereo partly drawn) [Example 103, N-((1S)-1-cyclohexyl-2-((2-((R)-4-isopropyl-2-oxoimidazolidin-1-yl)-2-(methylcarbamoyl)-2,3-dihydro-1H-inden-5-yl)amino)-2-oxoethyl)-1-(2-hydroxyethyl)-1H-pyrazole-3-carboxamide] | 2700 |  | 
CNC(=O)C1(N2CC(C)(Cc3ccccc3)CNC2=O)Cc2ccc(NC(=O)[C@@H](NC(=O)c3ccnn3C)C3CCCCC3)cc2C1 (stereo partly drawn) [Example 109, N-((1S)-2-((2-(5-benzyl-5-methyl-2-oxotetrahydropyrimidin-1(2H)-yl)-2-(methylcarbamoyl)-2,3-dihydro-1H-inden-5-yl)amino)-1-cyclohexyl-2-oxoethyl)-1-methyl-1H-pyrazole-5-carboxamide] | 3450 |  | 
CNC(=O)C1(N2C[C@@H](C(C)C)NC2=O)Cc2ccc(NC(=O)C(Cc3cc(Cl)ccc3Cl)NC(=O)c3ccnn3C)cc2C1 (stereo partly drawn) [Example 127, N-(3-(2,5-dichlorophenyl)-1-((2-((R)-4-isopropyl-2-oxoimidazolidin-1-yl)-2-(methylcarbamoyl)-2,3-dihydro-1H-inden-5-yl)amino)-1-oxopropan-2-yl)-1-methyl-1H-pyrazole-5-carboxamide] | 698 |  | 
CNC(=O)C1(N2CC3(CC3)CNC2=O)Cc2ccc(NC(=O)[C@@H](NC(=O)c3ccn(C4CC(O)C4)n3)C3CCCCC3)cc2C1 (stereo partly drawn) [Example 133, N-((1S)-1-cyclohexyl-2-((2-(methylcarbamoyl)-2-(6-oxo-5,7-diazaspiro[2.5]octan-5-yl)-2,3-dihydro-1H-inden-5-yl)amino)-2-oxoethyl)-1-(3-hydroxycyclobutyl)-1H-pyrazole-3-carboxamide] | 320 |  | 
CNC(=O)C1(N2CCCNC2=O)Cc2ccc(NC(=O)[C@@H](NC(=O)c3ccnn3C)C3CCCCC3)cc2C1 (stereo partly drawn) [Example 134, N-((1S)-1-cyclohexyl-2-((2-(methylcarbamoyl)-2-(2-oxotetrahydropyrimidin-1(2H)-yl)-2,3-dihydro-1H-inden-5-yl)amino)-2-oxoethyl)-1-methyl-1H-pyrazole-5-carboxamide] | 311 |  | 
CNC(=O)C1(N2CC(Cc3ccc(C#N)cc3)NC2=O)Cc2ccc(NC(=O)[C@@H](NC(=O)c3ccnn3C)C3CCCCC3)cc2C1 (stereo partly drawn) [Example 140, N-((1S)-2-((2-(4-(4-cyanobenzyl)-2-oxoimidazolidin-1-yl)-2-(methylcarbamoyl)-2,3-dihydro-1H-inden-5-yl)amino)-1-cyclohexyl-2-oxoethyl)-1-methyl-1H-pyrazole-5-carboxamide] | 277 |  | 
COc1ccccc1NCC1(N2CC3(CC3)CNC2=O)Cc2ccc(NC(=O)[C@@H](NC(=O)c3ccnn3C)C3CCCCC3)cc2C1 (stereo partly drawn) [Example 173, N-((1S)-1-cyclohexyl-2-((2-(((2-methoxyphenyl)amino)methyl)-2-(6-oxo-5,7-diazaspiro[2.5]octan-5-yl)-2,3-dihydro-1H-inden-5-yl)amino)-2-oxoethyl)-1-methyl-1H-pyrazole-5-carboxamide] |  | 153 | 
CNC(=O)C1(N2CC3(CC3)CNC2=O)Cc2ccc(NC(=O)[C@@H](NC(=O)c3cnc4c(C#N)cccn34)C3CCCCC3)cc2C1 (stereo partly drawn) [Example 180, 8-cyano-N-((1S)-1-cyclohexyl-2-((2-(methylcarbamoyl)-2-(6-oxo-5,7-diazaspiro[2.5]octan-5-yl)-2,3-dihydro-1H-inden-5-yl)amino)-2-oxoethyl)imidazo[1,2-a]pyridine-3-carboxamide] | 3680 |  | 
Cc1nonc1C(=O)N[C@H](C(=O)Nc1ccc2c(c1)CC(N1C[C@@H](C(C)C)NC1=O)(C(C)(O)C(F)(F)F)C2)C(C1CC1)C1CC1 (stereo partly drawn) [Example 250, N-((2S)-1,1-dicyclopropyl-3-((2-((R)-4-isopropyl-2-oxoimidazolidin-1-yl)-2-(1,1,1-trifluoro-2-hydroxypropan-2-yl)-2,3-dihydro-1H-inden-5-yl)amino)-3-oxopropan-2-yl)-4-methyl-1,2,5-oxadiazole-3-carboxamide] |  | 190 | 271
Cc1nonc1C(=O)N[C@H](C(=O)Nc1ccc2c(c1)CC(C(=O)Nc1ccc(C(F)(F)F)c(Cl)c1)(N1C[C@@H](C(C)C)NC1=O)C2)C(C1CC1)C1CC1 (stereo partly drawn) [Example 260, N-((2S)-1-((2-((3-chloro-4-(trifluoromethyl)phenyl)carbamoyl)-2-((R)-4-isopropyl-2-oxoimidazolidin-1-yl)-2,3-dihydro-1H-inden-5-yl)amino)-3,3-dicyclopropyl-1-oxopropan-2-yl)-4-methyl-1,2,5-oxadiazole-3-carboxamide] | > 10000 |  | 
Cc1nonc1C(=O)N[C@H](C(=O)Nc1ccc2c(c1)CC(C(=O)Nc1ccc(Cl)cc1Cl)(N1C[C@@H](C(C)C)NC1=O)C2)C(C1CC1)C1CC1 (stereo partly drawn) [Example 264, N-((2S)-1,1-dicyclopropyl-3-((2-((2,4-dichlorophenyl)carbamoyl)-2-((R)-4-isopropyl-2-oxoimidazolidin-1-yl)-2,3-dihydro-1H-inden-5-yl)amino)-3-oxopropan-2-yl)-4-methyl-1,2,5-oxadiazole-3-carboxamide] | 2540 |  | 
Cc1nonc1C(=O)N[C@H](C(=O)Nc1ccc2c(c1)CC(C(=O)Nc1cc(Cl)cc(Cl)c1)(N1C[C@@H](C(C)C)NC1=O)C2)C(C1CC1)C1CC1 (stereo partly drawn) [Example 265, N-((2S)-1,1-dicyclopropyl-3-((2-((3,5-dichlorophenyl)carbamoyl)-2-((R)-4-isopropyl-2-oxoimidazolidin-1-yl)-2,3-dihydro-1H-inden-5-yl)amino)-3-oxopropan-2-yl)-4-methyl-1,2,5-oxadiazole-3-carboxamide] | 8070 |  | 
Cc1nonc1C(=O)N[C@H](C(=O)Nc1ccc2c(c1)CC(C(=O)Nc1ccc(C3CC3)cc1Cl)(N1C[C@@H](C(C)C)NC1=O)C2)C(C1CC1)C1CC1 (stereo partly drawn) [Example 267, N-((2S)-1-((2-((2-chloro-4-cyclopropylphenyl)carbamoyl)-2-((R)-4-isopropyl-2-oxoimidazolidin-1-yl)-2,3-dihydro-1H-inden-5-yl)amino)-3,3-dicyclopropyl-1-oxopropan-2-yl)-4-methyl-1,2,5-oxadiazole-3-carboxamide] | > 10000 |  | 
Cc1nonc1C(=O)N[C@H](C(=O)Nc1ccc2c(c1)CC(CN1C[C@@H](C(F)(F)F)NC1=O)O2)C(C1CC1)C1CC1 (stereo partly drawn) [Example 293, N-((2S)-1,1-dicyclopropyl-3-oxo-3-((2-(((S)-2-oxo-4-(trifluoromethyl)imidazolidin-1-yl)methyl)-2,3-dihydrobenzofuran-5-yl)amino)propan-2-yl)-4-methyl-1,2,5-oxadiazole-3-carboxamide] | > 10000 |  | 
